Active and inactive are the calls of the source. The calls are words filed in the database; no cut-off is given here.
What was measured:
[1] = molecular target: T1, Fatty-acid amide hydrolase 1 (Rattus norvegicus, UniProt P97612); assay: Inhibition of rat FAAH
T1 sequence (P97612 whole entry): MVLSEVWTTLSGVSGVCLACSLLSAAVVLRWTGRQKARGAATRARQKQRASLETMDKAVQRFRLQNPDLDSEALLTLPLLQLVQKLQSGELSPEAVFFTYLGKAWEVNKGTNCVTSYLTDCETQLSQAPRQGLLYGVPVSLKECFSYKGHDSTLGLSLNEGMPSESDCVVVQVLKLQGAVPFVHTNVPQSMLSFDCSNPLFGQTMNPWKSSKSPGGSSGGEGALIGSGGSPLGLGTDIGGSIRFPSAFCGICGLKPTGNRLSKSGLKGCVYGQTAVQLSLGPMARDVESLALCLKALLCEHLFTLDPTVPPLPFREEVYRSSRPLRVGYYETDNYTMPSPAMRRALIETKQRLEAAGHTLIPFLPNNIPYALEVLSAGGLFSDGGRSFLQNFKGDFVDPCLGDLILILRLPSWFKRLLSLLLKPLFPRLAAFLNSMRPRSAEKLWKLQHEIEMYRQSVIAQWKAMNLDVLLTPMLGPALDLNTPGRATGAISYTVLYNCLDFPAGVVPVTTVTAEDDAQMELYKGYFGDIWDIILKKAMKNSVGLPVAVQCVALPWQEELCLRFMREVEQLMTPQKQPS

[2] = molecular target: Cannabinoid receptor 2 (Homo sapiens, UniProt P34972); assay: Displacement of [3H]CP-55,940 from human CB2 receptor expressed in HEK293 cells; format: cell-based
Chain of Cannabinoid receptor 2 (Homo sapiens, UniProt P34972) (P34972 whole entry): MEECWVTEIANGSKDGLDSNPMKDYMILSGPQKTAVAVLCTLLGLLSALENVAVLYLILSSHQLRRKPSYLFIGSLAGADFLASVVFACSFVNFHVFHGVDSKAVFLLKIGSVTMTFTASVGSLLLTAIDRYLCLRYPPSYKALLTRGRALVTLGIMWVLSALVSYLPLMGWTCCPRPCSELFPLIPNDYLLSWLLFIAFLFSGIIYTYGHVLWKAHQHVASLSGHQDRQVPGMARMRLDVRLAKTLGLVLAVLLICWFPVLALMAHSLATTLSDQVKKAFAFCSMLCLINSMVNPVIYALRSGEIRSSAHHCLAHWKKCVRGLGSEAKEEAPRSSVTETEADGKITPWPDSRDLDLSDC

[3] = molecular target: T2, Cannabinoid receptor 1 (Rattus norvegicus, UniProt P20272); assay: Displacement of [3H]CP-55,940 from CB1 receptor in rat brain homogenates in absence of phenylmethanesulfonyl fluoride; format: tissue-based
T2 sequence (P20272 whole entry): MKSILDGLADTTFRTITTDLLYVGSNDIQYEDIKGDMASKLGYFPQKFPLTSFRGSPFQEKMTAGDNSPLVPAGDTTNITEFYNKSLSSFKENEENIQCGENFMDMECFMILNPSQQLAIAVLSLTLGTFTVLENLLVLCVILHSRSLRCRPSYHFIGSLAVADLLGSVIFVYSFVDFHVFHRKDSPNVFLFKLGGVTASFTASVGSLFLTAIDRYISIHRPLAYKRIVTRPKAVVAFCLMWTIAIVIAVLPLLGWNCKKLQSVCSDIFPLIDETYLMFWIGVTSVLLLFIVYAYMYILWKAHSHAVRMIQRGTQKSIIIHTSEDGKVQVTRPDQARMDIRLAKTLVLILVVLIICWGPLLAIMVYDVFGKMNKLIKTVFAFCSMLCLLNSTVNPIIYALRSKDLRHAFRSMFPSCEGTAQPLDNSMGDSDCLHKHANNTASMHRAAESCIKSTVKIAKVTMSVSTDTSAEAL

[4] = molecular target: T2, Cannabinoid receptor 1; assay: Displacement of [3H]CP-55,940 from CB1 receptor in rat brain homogenates in presence of phenylmethanesulfonyl fluoride; format: tissue-based
[5] = molecular target: T3, N-acylethanolamine-hydrolyzing acid amidase (Homo sapiens, UniProt Q02083); assay: Inhibition of human NAAA
T3 sequence (Q02083 whole entry): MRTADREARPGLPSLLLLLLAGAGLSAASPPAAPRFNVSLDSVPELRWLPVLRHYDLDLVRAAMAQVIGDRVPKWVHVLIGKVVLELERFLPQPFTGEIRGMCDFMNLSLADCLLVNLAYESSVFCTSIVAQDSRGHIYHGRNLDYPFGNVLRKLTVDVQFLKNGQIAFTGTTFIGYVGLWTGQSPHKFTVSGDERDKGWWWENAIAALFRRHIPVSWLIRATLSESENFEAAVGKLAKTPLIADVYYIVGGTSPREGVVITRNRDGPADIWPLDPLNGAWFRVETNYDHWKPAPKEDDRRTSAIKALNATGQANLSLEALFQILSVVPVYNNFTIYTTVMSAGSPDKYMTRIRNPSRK

[6] = molecular target: T4, Fatty-acid amide hydrolase 1 (Homo sapiens, UniProt O00519); assay: Inhibition of human FAAH
T4 sequence (O00519 whole entry): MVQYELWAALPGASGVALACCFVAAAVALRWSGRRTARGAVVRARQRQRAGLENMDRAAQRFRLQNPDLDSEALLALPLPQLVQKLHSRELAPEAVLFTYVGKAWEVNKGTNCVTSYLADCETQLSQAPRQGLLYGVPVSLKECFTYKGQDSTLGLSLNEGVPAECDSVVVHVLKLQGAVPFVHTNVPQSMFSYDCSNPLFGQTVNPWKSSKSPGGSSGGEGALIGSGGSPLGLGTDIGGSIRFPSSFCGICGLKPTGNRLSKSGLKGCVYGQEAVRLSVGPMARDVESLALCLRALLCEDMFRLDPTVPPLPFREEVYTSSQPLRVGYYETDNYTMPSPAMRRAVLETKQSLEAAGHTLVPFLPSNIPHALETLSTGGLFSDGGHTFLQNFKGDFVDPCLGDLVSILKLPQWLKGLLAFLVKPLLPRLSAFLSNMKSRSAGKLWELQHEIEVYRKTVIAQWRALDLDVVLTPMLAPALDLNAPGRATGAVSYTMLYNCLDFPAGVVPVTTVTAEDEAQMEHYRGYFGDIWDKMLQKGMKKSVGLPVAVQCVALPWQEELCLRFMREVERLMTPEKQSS

[7] = molecular target: T5, Monoglyceride lipase (Homo sapiens, UniProt Q99685); assay: Inhibition of human MGL
T5 sequence (Q99685 whole entry): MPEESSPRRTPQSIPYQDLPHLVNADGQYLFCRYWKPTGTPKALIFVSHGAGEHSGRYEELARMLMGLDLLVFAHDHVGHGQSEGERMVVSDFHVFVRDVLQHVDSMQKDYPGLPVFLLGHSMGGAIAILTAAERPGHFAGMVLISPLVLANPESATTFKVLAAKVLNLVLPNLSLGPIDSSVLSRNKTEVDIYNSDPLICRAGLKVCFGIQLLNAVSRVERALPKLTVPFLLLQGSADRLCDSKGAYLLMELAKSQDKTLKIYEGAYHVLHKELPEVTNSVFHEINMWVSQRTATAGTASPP

[8] = molecular target: Cannabinoid receptor 2 (Mus musculus, UniProt P47936); assay: Displacement of [3H]CP-55,940 from mouse CB2 receptor expressed in HEK293 cells; format: cell-based
Chain of Cannabinoid receptor 2 (Mus musculus, UniProt P47936) (P47936 whole entry): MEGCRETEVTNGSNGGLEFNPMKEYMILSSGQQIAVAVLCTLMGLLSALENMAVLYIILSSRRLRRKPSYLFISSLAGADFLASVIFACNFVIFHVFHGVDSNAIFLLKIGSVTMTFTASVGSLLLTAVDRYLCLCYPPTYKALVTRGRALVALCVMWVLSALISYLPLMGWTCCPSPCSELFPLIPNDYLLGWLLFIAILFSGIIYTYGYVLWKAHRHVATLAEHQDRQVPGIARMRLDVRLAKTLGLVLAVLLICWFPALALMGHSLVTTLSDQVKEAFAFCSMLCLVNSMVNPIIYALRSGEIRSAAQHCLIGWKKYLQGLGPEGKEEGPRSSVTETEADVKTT

[9] = molecular target: T6, Prostaglandin E2 receptor EP1 subtype (Homo sapiens) (UniProt P34995); assay: Activity at recombinant EP1 receptor (unknown origin) expressed in CHO cells co-expressing Gq protein at 100 nM by electrical cell substrate impedance sensing system; format: cell-based
T6 sequence (whole entry): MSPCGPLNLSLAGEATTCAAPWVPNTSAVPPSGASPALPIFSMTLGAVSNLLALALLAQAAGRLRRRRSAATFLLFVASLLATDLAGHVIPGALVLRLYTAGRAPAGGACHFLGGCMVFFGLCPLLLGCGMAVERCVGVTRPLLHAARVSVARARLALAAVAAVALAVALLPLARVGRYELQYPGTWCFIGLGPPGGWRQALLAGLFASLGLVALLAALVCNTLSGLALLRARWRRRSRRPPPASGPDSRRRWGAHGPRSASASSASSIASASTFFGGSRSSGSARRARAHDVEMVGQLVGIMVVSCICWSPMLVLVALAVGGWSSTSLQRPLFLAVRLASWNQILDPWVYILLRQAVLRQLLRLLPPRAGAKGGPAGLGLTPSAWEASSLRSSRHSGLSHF

[10] = molecular target: Prostaglandin E2 receptor EP4 subtype (Homo sapiens) (UniProt P35408); assay: Activity at recombinant EP4 receptor (unknown origin) expressed in CHO cells co-expressing Gs protein at 100 nM by electrical cell substrate impedance sensing system; format: cell-based
Chain of Prostaglandin E2 receptor EP4 subtype (Homo sapiens) (P35408 whole entry): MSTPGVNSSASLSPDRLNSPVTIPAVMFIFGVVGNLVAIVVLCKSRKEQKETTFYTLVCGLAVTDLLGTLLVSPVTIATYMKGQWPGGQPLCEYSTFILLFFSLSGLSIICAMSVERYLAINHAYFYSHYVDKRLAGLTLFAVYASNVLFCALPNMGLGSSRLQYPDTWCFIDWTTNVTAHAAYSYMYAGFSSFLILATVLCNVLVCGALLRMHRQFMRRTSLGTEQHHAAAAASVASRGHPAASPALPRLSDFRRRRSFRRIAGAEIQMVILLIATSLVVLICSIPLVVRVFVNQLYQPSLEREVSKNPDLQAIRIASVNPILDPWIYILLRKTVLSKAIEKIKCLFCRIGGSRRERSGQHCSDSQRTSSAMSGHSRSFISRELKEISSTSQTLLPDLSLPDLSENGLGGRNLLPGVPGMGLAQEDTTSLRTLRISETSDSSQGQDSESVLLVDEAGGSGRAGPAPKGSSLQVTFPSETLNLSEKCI

[11] = molecular target: T7, Prostaglandin E2 receptor EP3 subtype (Homo sapiens) (UniProt P43115); assay: Activity at recombinant EP3 receptor (unknown origin) expressed in CHO cells co-expressing Gi protein at 100 nM by electrical cell substrate impedance sensing system; format: cell-based
T7 sequence (whole entry): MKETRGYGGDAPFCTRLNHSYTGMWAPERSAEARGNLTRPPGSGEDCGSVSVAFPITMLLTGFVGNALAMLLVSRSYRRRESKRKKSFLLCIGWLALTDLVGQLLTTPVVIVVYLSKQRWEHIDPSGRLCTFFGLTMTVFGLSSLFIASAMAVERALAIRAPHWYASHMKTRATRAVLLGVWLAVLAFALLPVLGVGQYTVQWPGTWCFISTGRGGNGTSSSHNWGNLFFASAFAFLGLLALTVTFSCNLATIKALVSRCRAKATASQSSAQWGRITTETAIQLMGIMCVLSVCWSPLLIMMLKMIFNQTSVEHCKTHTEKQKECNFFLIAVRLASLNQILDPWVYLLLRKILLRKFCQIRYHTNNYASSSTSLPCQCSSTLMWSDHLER

Row | IC50 [1] | Ki [2] | Ki [3] | Ki [4] | IC50 [5] | IC50 [6] | IC50 [7] | Ki [8] | Activity [9] | Activity [10] | Activity [11] | Compound
1 | > 100 µM | > 1 µM | 0.83 µM | 0.62 µM | > 100 µM | > 100 µM | > 100 µM | > 1 µM | – | – | – | O=C(CCC/C=C\C[C@H]1C(=O)C[C@@H](O)[C@@H]1/C=C/[C@@H](O)CCc1ccc(I)cc1)NCCO
2 | > 100 µM | > 1 µM | > 1 µM | 0.95 µM | > 100 µM | > 100 µM | > 100 µM | > 1 µM | – | – | – | C[C@@H](CO)NC(=O)CCC/C=C\C[C@H]1C(=O)C[C@@H](O)[C@@H]1/C=C/[C@@H](O)CCc1ccccc1
3 | > 100 µM | > 1 µM | > 1 µM | > 1 µM | > 100 µM | > 100 µM | > 100 µM | > 1 µM | – | – | – | O=C(CCC/C=C\C[C@H]1C(=O)C[C@@H](O)[C@@H]1/C=C/[C@@H](O)CCc1ccccc1)NCCCO
4 | > 100 µM | > 1 µM | 0.77 µM | 0.73 µM | > 100 µM | > 100 µM | > 100 µM | > 1 µM | – | – | – | C[C@H](CO)NC(=O)CCC/C=C\C[C@H]1C(=O)C[C@@H](O)[C@@H]1/C=C/[C@@H](O)CCc1ccccc1

Continued, molecule first:

Row | Compound | IC50 [1] | Ki [2] | Ki [3] | Ki [4] | IC50 [5] | IC50 [6] | IC50 [7] | Ki [8] | Activity [9] | Activity [10] | Activity [11]
5 | O=C(CCC/C=C\C[C@H]1C(=O)C[C@@H](O)[C@@H]1/C=C/[C@H](O)CCc1ccccc1)NCCO | > 100 µM | > 1 µM | 0.74 µM | 0.74 µM | > 100 µM | > 100 µM | > 100 µM | > 1 µM | – | – | –
6 | O=C(CCC/C=C\C[C@H]1C(=O)C[C@@H](O)[C@@H]1/C=C/[C@@H](O)CCc1ccccc1)NCCO | > 100 µM | > 1 µM | > 1 µM | > 1 µM | > 100 µM | > 100 µM | 100 µM | > 1 µM | inactive | inactive | inactive
7 | CCCCC[C@H](O)/C=C/[C@H]1[C@H](O)CC(=O)[C@@H]1C/C=C\CCCC(=O)NCCO | – | – | – | – | – | – | – | – | inactive | inactive | inactive
8 | CCCCC[C@H](O)/C=C/[C@H]1[C@H](O)CC(=O)[C@@H]1C/C=C\CCCC(=O)O | – | – | – | – | – | – | – | – | Active | Active | Active
